# Reference: patent US11974983B2 (Duke University, priority 2018, dated 2024)
# Positions count from the first letter of the chain named. Like-named read-outs stand apart in the source and are kept apart here.
# Tests used:
# [1] = target: T1, ERα wild-type LBD (Homo sapiens, UniProt P03372, C381S/C417S/C530S/L536S); test: X-ray crystal structure of ligand-bound ERα wild-type LBD (L536S)
# T1 construct: 6x-His-TEV (N, cleaved yes); made in house; host or cells: E. coli BL21(DE3)
# T1 sequence (P03372 311-547 C381S/C417S/C530S/L536S limits assumed): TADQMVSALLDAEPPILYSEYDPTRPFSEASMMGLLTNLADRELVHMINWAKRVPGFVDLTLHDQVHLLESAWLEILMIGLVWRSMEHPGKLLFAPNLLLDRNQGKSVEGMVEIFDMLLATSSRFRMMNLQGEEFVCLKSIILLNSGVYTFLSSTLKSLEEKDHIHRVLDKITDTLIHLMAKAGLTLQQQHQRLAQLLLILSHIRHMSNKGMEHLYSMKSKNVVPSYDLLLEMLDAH
# Protocol: (§1) 6x-His-TEV-Estrogen receptor alpha ligand binding domain containing C381S, C417S, C530S with L536S or Y537S mutations were expressed in E. coli BL21(DE3). The L536S mutant stabilizes the wild-type antagonist conformation and Y537S is an activating somatic mutation that has been identified in patients with acquired hormone resistance. Both proteins were purified using Ni-NTA resin, the 6x-His tag was cleaved using tev protease, removed using Ni-NTA resin, and a final purification was performed by passing the protein over a size exclusion column. The main peak was concentrated to 10 mg/mL and flash frozen.
# (§2) Hanging drop vapor diffusion was used to crystallize the complexes. The L536S-Laso (lasofoxifene-bound ERα wild-type LBD) complex formed clear hexagonal crystals in 25% PEG 8,000, 200 mM MgCl2, HEPES pH 7.5 after two weeks at room temperature. The Y537S-Laso (lasofoxifene-bound ERα Y537S mutant LBD) complex formed rectangular crystals in 20% PEG 3.35K, 200 mM MgCl2, HEPES pH 6.5 after one week at room temperature.
# (§3) Crystals were cryo-protected in 25% glycerol in mother liquor and flash frozen in liquid nitrogen. All x-ray crystallographic data sets were collected at the Advanced Photon Source. The L536S-Laso complex diffracted to 1.8 Å and the Y537S-Laso complex diffracted to 2.1 Å by cc^1/2 over 50%. Phaser was used for molecular replacement with 5UFX as the model. […]
# [2] = Cmax in blood at doses used in prior clinical trials; type: in vivo; details: dose 1 mg; read-out: Converted (M) Cmax
# Description: See Maximov et al., Current Clinical Pharmacology 8(2): 135-155 (2013). […] See Assessment Report for Fablyn, 2009 (EMA). […] See Gardner et al., J Clin Pharmacol 46(1): 52-58 (2006).
# [3] = in blood, cited from earlier work
# [4] = target: T2, ERα Y537S mutant LBD (Homo sapiens, UniProt P03372, C381S/C417S/C530S/Y537S); test: X-ray crystal structure of ligand-bound ERα Y537S mutant LBD
# T2 construct: 6x-His-TEV (N, cleaved yes); made in house; host or cells: E. coli BL21(DE3)
# T2 sequence (P03372 311-547 C381S/C417S/C530S/Y537S limits assumed): T1 sequence (P03372 311-547 C381S/C417S/C530S/L536S limits assumed) with S226L, Y227S
# Protocol: as §1, §2, §3
# [5] = test system: MCF7 D538G; test: Mammary intraductal (MIND) xenograft model, MCF7 D538G; type: in vivo, NSG mice
# Protocol: MCF7 cells were engineered with CRISPR/Cas9 to express ERα with Y537S and D538G mutations. To mimic the natural environment of infiltrating ductal ERα^+ breast cancers, NSG™ mice were injected, via the nipple in the inguinal mammary glands, with three MCF7 cell variants: wild type MCF7 cells (MCF7 WT), MCF7 cells expressing Y537S mutant ERα (MCF7 Y537S), and MCF7 cells expressing D538G mutant ERα (MCF7 D538G), respectively. Prior to injection, the MCF7 cells were labeled with a luciferase reporter to monitor tumor growth in vivo using a Xenogen IVIS imager. […] FIG. 4 summarizes the experimental design.
smiles,measurement,setting,value
"Oc1ccc2c(c1)CC[C@H](c1ccccc1)[C@@H]2c1ccc(OCCN2CCCC2)cc1 [Lasofoxifene, lasofoxifene]",loop between helix 11 and helix 12 in the crystal structure,[1],does not disrupt the loop between helix 11 and helix 12
same,Cmax,[2],1.55e-08 M
same,Reported Cmax,[3]; dose 0.5 mg,3.6 ng/mL
same,Reported Cmax,[3]; dose 1 mg,6.43 ng/mL
same,loop between helix 11 and helix 12 in the crystal structure,[4],absent
same,tumor growth monitored by total flux,"[5]; MCF7 D538G mice, 10 mg/kg five times per week subcutaneous",most significantly inhibited
same,"tumor weight, compared to fulvestrant","[5]; MCF7 D538G, 5 mg/kg and 10 mg/kg, after 70 days",significantly more effective
same,"tumor growth measured by tumor weight, compared to vehicle control","[5]; MCF7 D538G, 10 mg/kg, after 70 days of treatment",significantly inhibited
same,liver metastasis,"[5]; MCF7 D538G, all tested doses (1, 5, 10 mg/kg), after 70 days",effective in reducing liver metastasis at all tested doses
